In general, EC50 refers to the concentration at which the effect is half-maximal. A low value points to higher potency in that assay.

The results in this text go back to patent publication US20240209028A1, “CNP COMPOUNDS” (priority 2022, published 2024).

The target in this experiment is T1, human natriuretic peptide receptor 2 (hNPR2) (Homo sapiens, UniProt P20594).
T1 construct: expressed in transfected cells; host or cells: HEK293 (ATCC CRL-1573), clone 35, co-transfected with pGloSensor-42F
T1 sequence (P20594 23-1047): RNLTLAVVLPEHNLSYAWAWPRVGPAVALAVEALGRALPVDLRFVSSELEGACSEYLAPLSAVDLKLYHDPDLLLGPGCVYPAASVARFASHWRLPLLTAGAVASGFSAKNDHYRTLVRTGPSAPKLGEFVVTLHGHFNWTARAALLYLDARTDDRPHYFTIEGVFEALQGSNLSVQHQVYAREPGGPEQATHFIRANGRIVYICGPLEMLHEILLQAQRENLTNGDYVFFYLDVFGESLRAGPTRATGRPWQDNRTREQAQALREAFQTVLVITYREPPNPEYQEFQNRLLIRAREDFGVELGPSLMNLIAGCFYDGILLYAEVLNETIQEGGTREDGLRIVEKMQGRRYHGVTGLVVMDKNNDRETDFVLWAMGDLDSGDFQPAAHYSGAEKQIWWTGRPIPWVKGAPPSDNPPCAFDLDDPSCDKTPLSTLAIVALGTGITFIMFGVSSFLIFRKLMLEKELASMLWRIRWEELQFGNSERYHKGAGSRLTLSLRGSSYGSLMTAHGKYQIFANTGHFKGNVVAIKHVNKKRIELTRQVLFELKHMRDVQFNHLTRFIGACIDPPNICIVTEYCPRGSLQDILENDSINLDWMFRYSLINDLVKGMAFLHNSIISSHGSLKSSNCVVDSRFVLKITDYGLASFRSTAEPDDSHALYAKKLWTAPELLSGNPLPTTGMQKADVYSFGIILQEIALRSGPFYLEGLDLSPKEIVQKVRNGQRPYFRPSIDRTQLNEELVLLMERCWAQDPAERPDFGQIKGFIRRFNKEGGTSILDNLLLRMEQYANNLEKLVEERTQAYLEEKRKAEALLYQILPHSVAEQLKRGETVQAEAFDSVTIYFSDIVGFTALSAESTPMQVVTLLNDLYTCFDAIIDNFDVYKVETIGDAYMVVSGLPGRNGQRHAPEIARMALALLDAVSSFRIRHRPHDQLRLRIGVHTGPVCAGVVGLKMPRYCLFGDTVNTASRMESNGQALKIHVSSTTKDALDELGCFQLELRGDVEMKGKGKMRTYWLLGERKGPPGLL
Put plainly: In vitro hNPR2 activity assay (cGMP GloSensor reporter, HEK293). To be noted: for EC50: 0% HSA, HEK293-hNPR2/GloSensor cells; for hNPR2 0% HSA. [EC50% rel CNP]: potency relative to CNP22 (0065). It is filed as cell-based. In short, it runs like this: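 Potency is the EC50 from a four-parameter logistic fit, also expressed relative to the in-plate CNP22 control (×100), with at least two replicates. Compounds (ten concentrations, […], HSA-free diluent with 1% OVA, 0.01% Tween20) were incubated 30 min at 37 °C on HEK293 cells co-expressing hNPR2 and a GloSensor cGMP luciferase. Luminescence detected with Bright-Glo.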

Starred links: 1 amine or outer side, 2 acyl side, 3 side chain; linkers in the order of their positions; H or OH if unused. Positions of bridges follow the written chain, without caps; N, C: chain ends. Residues, ends and D or L forms follow the SMILES beside them. *: point of attachment. C18 diacid = O=C(O)CCCCCCCCCCCCCCCCC(=O)*; γGlu = O=C(O)[C@H](CCC(=O)[*:2])N[*:1]; AEEA = NCCOCCOCC(=O)O

As for `CC[C@H](C)[C@@H]1NC(=O)[C@H](CCCNC(=N)N)NC(=O)[C@H](CCC(=O)O)NC(=O)[C@H](CC(C)C)NC(=O)[C@H](CCCCN)NC(=O)[C@H](CC(C)C)NC(=O)CNC(=O)[C@H](Cc2ccccc2)NC(=O)[C@@H](NC(=O)CNC(=O)[C@H](CCCCN)NC(=O)[C@H](CO)NC(=O)[C@H](CC(C)C)NC(=O)CNC(=O)[C@H](Cc2c[nH]cn2)NC(=O)[C@H](Cc2c[nH]cn2)NC(=O)[C@H](CCC(N)=O)NC(=O)[C@H](C)NC(=O)CNC(=O)[C@H](Cc2c[nH]cn2)NC(=O)[C@H](Cc2ccc(O)cc2)NC(=O)COCCOCCNC(=O)COCCOCCNC(=O)CC[C@H](NC(=O)CCCCCCCCCCCCCCCCC(=O)O)C(=O)O)CSSC[C@@H](C(=O)O)NC(=O)CNC(=O)[C@H](CC(C)C)NC(=O)CNC(=O)[C@H](CO)NC(=O)[C@H](CC(C)C)NC(=O)[C@H](CO)NC(=O)CNC1=O` [compound 1322] ({C18 diacid-γGlu-AEEA-AEEA}-YHGAQHHGLSKGCFGLKLERIGSLSGLGC-OH; disulfide 13-29; C-terminus assumed), a half-maximal response (EC50) required 4.73 nM and the “hNPR2 0% HSA. [EC50% rel CNP]” value came out at 1.9%. For the molecule `CC[C@H](C)[C@@H]1NC(=O)[C@H](CCCNC(=N)N)NC(=O)[C@H](CCC(=O)O)NC(=O)[C@H](CC(C)C)NC(=O)[C@H](CCCCN)NC(=O)[C@H](CC(C)C)NC(=O)CNC(=O)[C@H](Cc2ccccc2)NC(=O)[C@@H](NC(=O)CNC(=O)[C@H](CCCCN)NC(=O)[C@H](CO)NC(=O)[C@H](CC(C)C)NC(=O)CNC(=O)[C@H](Cc2c[nH]cn2)NC(=O)[C@H](Cc2c[nH]cn2)NC(=O)[C@H](CCC(N)=O)NC(=O)[C@H](C)NC(=O)CNC(=O)[C@H](Cc2c[nH]cn2)NC(=O)[C@H](Cc2ccc(O)cc2)NC(=O)COCCOCCNC(=O)COCCOCCNC(=O)CC[C@H](NC(=O)CC[C@H](NC(=O)CCCCCCCCCCCCCCCCC(=O)O)C(=O)O)C(=O)O)CSSC[C@@H](C(=O)O)NC(=O)CNC(=O)[C@H](CC(C)C)NC(=O)CNC(=O)[C@H](CO)NC(=O)[C@H](CC(C)C)NC(=O)[C@H](CO)NC(=O)CNC1=O` [compound 1323] ({C18 diacid-γGlu-γGlu-AEEA-AEEA}-YHGAQHHGLSKGCFGLKLERIGSLSGLGC-OH; disulfide 13-29; C-terminus assumed), the concentration giving a half-maximal response (EC50) worked out at 11.2 nM and the “hNPR2 0% HSA. [EC50% rel CNP]” value came out at 0.8%. On to `CC[C@H](C)[C@@H]1NC(=O)[C@H](CCCNC(=N)N)NC(=O)[C@H](CCC(=O)O)NC(=O)[C@H](CC(C)C)NC(=O)[C@H](CCCCN)NC(=O)[C@H](CC(C)C)NC(=O)CNC(=O)[C@H](Cc2ccccc2)NC(=O)[C@@H](NC(=O)CNC(=O)[C@H](CCC(N)=O)NC(=O)[C@H](CO)NC(=O)[C@H](CC(C)C)NC(=O)CNC(=O)[C@H](Cc2c[nH]cn2)NC(=O)[C@H](Cc2c[nH]cn2)NC(=O)[C@H](CCC(N)=O)NC(=O)[C@H](C)NC(=O)CNC(=O)[C@H](CCCCN)NC(=O)[C@H](Cc2ccc(O)cc2)NC(=O)COCCOCCNC(=O)COCCOCCNC(=O)CC[C@H](NC(=O)CC[C@H](NC(=O)CCCCCCCCCCCCCCCCC(=O)O)C(=O)O)C(=O)O)CSSC[C@@H](C(=O)O)NC(=O)CNC(=O)[C@H](CC(C)C)NC(=O)CNC(=O)[C@H](CO)NC(=O)[C@H](CC(C)C)NC(=O)[C@H](CO)NC(=O)CNC1=O` [compound 1324] ({C18 diacid-γGlu-γGlu-AEEA-AEEA}-YKGAQHHGLSQGCFGLKLERIGSLSGLGC-OH; disulfide 13-29), for which the midpoint of the response, the EC50, lay at 5.51 nM and the “hNPR2 0% HSA. [EC50% rel CNP]” value worked out at 1.6%. For `CC[C@H](C)[C@@H]1NC(=O)[C@H](CCCNC(=N)N)NC(=O)[C@H](CCC(=O)O)NC(=O)[C@H](CC(C)C)NC(=O)[C@@H]2CCCN2C(=O)[C@H](CC(C)C)NC(=O)CNC(=O)[C@H](Cc2ccccc2)NC(=O)[C@@H](NC(=O)CNC(=O)[C@H](CO)NC(=O)[C@H](CO)NC(=O)[C@H](CC(C)C)NC(=O)CNC(=O)[C@H](CCCCN)NC(=O)[C@H](CCCCN)NC(=O)[C@H](CCC(N)=O)NC(=O)[C@H](C)NC(=O)CNC(=O)[C@H](CCC(=O)O)NC(=O)[C@H](Cc2ccc(O)cc2)NC(=O)COCCOCCNC(=O)COCCOCCNC(=O)CC[C@H](NC(=O)CCCCCCCCCCCCCCCCC(=O)O)C(=O)O)CSSC[C@@H](C(=O)O)NC(=O)CNC(=O)[C@H](CC(C)C)NC(=O)CNC(=O)[C@H](CO)NC(=O)[C@H](CC(C)C)NC(=O)[C@H](CO)NC(=O)CNC1=O` [compound 1338] ({C18 diacid-γGlu-AEEA-AEEA}-YEGAQKKGLSSGCFGLPLERIGSLSGLGC-OH; disulfide 13-29), in that order: 6.77 nM and 1.3%. `CC[C@H](C)[C@@H]1NC(=O)[C@H](CCCNC(=N)N)NC(=O)[C@H](CC(=O)O)NC(=O)[C@H](CC(C)C)NC(=O)[C@@H]2CCCN2C(=O)[C@H](CC(C)C)NC(=O)CNC(=O)[C@H](Cc2ccccc2)NC(=O)[C@@H](NC(=O)CNC(=O)[C@H](CO)NC(=O)[C@H](CO)NC(=O)[C@H](CC(C)C)NC(=O)CNC(=O)[C@H](CCCCN)NC(=O)[C@H](CCCCN)NC(=O)[C@H](CCC(N)=O)NC(=O)[C@H](C)NC(=O)CNC(=O)[C@H](CCC(=O)O)NC(=O)COCCOCCNC(=O)COCCOCCNC(=O)CC[C@H](NC(=O)CCCCCCCCCCCCCCCCC(=O)O)C(=O)O)CSSC[C@@H](C(=O)O)NC(=O)CNC(=O)[C@H](CC(C)C)NC(=O)CNC(=O)[C@H](CO)NC(=O)[C@H](CC(C)C)NC(=O)[C@H](CO)NC(=O)CNC1=O` [compound 1339] ({C18 diacid-γGlu-AEEA-AEEA}-EGAQKKGLSSGCFGLPLDRIGSLSGLGC-OH; disulfide 12-28): the “hNPR2 0% HSA. [EC50% rel CNP]” value was 15.5%. On to `CC[C@H](C)[C@@H]1NC(=O)[C@H](CCCNC(=N)N)NC(=O)[C@H](CC(=O)O)NC(=O)[C@H](CC(C)C)NC(=O)[C@H](CCCCN)NC(=O)[C@H](CC(C)C)NC(=O)CNC(=O)[C@H](Cc2ccccc2)NC(=O)[C@@H](NC(=O)CNC(=O)[C@H](CCC(N)=O)NC(=O)[C@H](CO)NC(=O)[C@H](CC(C)C)NC(=O)CNC(=O)[C@H](Cc2c[nH]cn2)NC(=O)[C@H](Cc2c[nH]cn2)NC(=O)[C@H](CCC(N)=O)NC(=O)[C@H](C)NC(=O)CNC(=O)[C@H](CCCCN)NC(=O)[C@H](Cc2ccc(O)cc2)NC(=O)COCCOCCNC(=O)COCCOCCNC(=O)CC[C@H](NC(=O)CCCCCCCCCCCCCCCCC(=O)O)C(=O)O)CSSC[C@@H](C(=O)O)NC(=O)CNC(=O)[C@H](CC(C)C)NC(=O)CNC(=O)[C@H](CO)NC(=O)[C@H](CC(C)C)NC(=O)[C@H](CO)NC(=O)CNC1=O` [compound 1340] ({C18 diacid-γGlu-AEEA-AEEA}-YKGAQHHGLSQGCFGLKLDRIGSLSGLGC-OH; disulfide 13-29), for which the midpoint of the response, the EC50, lay at 0.18 nM and the “hNPR2 0% HSA. [EC50% rel CNP]” value was 44.4%. On to `CC[C@H](C)[C@@H]1NC(=O)[C@H](CCCNC(=N)N)NC(=O)[C@H](CC(=O)O)NC(=O)[C@H](CC(C)C)NC(=O)[C@@H]2CCCN2C(=O)[C@H](CC(C)C)NC(=O)CNC(=O)[C@H](Cc2ccccc2)NC(=O)[C@@H](NC(=O)CNC(=O)[C@H](CCC(N)=O)NC(=O)[C@H](CO)NC(=O)[C@H](CC(C)C)NC(=O)CNC(=O)[C@H](Cc2c[nH]cn2)NC(=O)[C@H](Cc2c[nH]cn2)NC(=O)[C@H](CCC(N)=O)NC(=O)[C@H](C)NC(=O)CNC(=O)[C@H](CCCCN)NC(=O)[C@H](Cc2ccc(O)cc2)NC(=O)COCCOCCNC(=O)COCCOCCNC(=O)CC[C@H](NC(=O)CCCCCCCCCCCCCCCCC(=O)O)C(=O)O)CSSC[C@@H](C(=O)O)NC(=O)CNC(=O)[C@H](CC(C)C)NC(=O)CNC(=O)[C@H](CO)NC(=O)[C@H](CC(C)C)NC(=O)[C@H](CO)NC(=O)CNC1=O` [compound 1341] ({C18 diacid-γGlu-AEEA-AEEA}-YKGAQHHGLSQGCFGLPLDRIGSLSGLGC-OH; disulfide 13-29; C-terminus assumed), for which the “hNPR2 0% HSA. [EC50% rel CNP]” value amounted to 16.7%.
